Assay [1] deals with T1, human GPR119 (Homo sapiens, UniProt Q8TDV5).
T1 construct: host or cells: HEK293-CRE-beta-lactamase
T1 sequence (Q8TDV5 1-335): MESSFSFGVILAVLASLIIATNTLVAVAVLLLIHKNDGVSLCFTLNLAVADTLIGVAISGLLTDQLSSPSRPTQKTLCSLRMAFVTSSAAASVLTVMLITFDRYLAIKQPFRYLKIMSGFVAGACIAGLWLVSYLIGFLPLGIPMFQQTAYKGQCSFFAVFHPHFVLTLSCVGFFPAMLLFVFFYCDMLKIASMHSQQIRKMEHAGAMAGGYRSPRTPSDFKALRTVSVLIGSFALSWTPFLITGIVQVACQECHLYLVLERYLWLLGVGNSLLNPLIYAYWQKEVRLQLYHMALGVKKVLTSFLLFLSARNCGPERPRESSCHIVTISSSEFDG
The assay is described as follows: cAMP HTRF functional assay (hGPR119 HEK-CRE beta-lactamase cells). It is filed as cell-based. Conditions: one value per run; for EC50: hGPR119 HEK-CRE beta-lactamase cells, HTRF cAMP; for Emax / Intrinsic Activity* (cAMP): percent of maximal activity relative to standard GPR119 agonist (WO2005121121) at 10 μM; for Emax: read-out: Intrinsic Activity* (cAMP). The procedure:
GPR119 agonist activity was also determined with a cell-based assay utilizing an HTRF (Homogeneous Time-Resolved Fluorescence) cAMP detection kit (cAMP dynamic 2 Assay Kit; Cis Bio cat #62AM4PEC) that measures cAMP levels in the cell. The method is a competitive immunoassay between native cAMP produced by the cells and the cAMP labeled with the dye d2. The tracer binding is visualized by a Mab anti-cAMP labeled with Cryptate. The specific signal (i.e. energy transfer) is inversely proportional to the concentration of cAMP in either standard or sample.
Following 30 minutes incubation at room temperature, 5 microL of labeled d2 cAMP and 5 microL of anti-cAMP antibody (both diluted 1:20 in cell lysis buffer; as described in the manufacturers assay protocol) were added to each well of the assay plate. […] Raw data were converted to nM cAMP by interpolation from a cAMP standard curve (as described in the manufacturer's assay protocol) and EC50 determinations were made from an agonist-response curves analyzed with a curve fitting program using a 4-parameter logistic dose response equation.
A general note: TR-FRET usually uses a lanthanide donor and a delayed reading to cut background.

In assay [2] the target is T1, human GPR119. The assay is described as follows: GPR119 radioligand binding assay ([3H]-Compound A or [3H]-Compound B, HEK 293FT membranes). Conditions: Ki from IC50 by Cheng-Prusoff, one value per run. The protocol:
Cells were harvested via centrifugation (3,000×g, 10 minutes), washed once on DPBS (minus Ca++/Mg++), resuspended in 0.25M sucrose, 25 mM HEPES, 0.5 mM EDTA, pH 7.4 and frozen at −80 degrees Celsius.
The frozen cells were thawed on ice and centrifuged at 700×g (1400 rpm) for 10 minutes at 4 degrees Celsius. The cell pellet was resuspended in 20 mL phosphate-buffered saline, and centrifuged at 1400 rpm for 10 minutes. […] Cells were then lysed with 15 gentle strokes of a tight-fitting glass Dounce homogenizer. The homogenate was centrifuged at 1000×g (2200 rpm) for 10 minutes at 4 degrees Celsius. The supernatant was transferred into fresh centrifuge tubes on ice. The cell pellet was resuspended in homogenization buffer, and centrifuged again at 1000×g (2200 rpm) for 10 minutes at 4 degrees Celsius after which the supernatant was removed and the pellet resuspended in homogenization buffer. […] The solution was then centrifuged at 25,000×g (15000 rpm) for 20 minutes at 4 degrees Celsius, the supernatant was discarded, and the pellet was resuspended in fresh homogenization buffer (minus Benzonase and MgCl2). After repeating the 25,000×g centrifugation step, the final membrane pellet was resuspended in homogenization buffer and frozen at −80 degrees Celsius.
2 microL of each dilution was added to appropriate wells of a 96-well plate (each concentration in triplicate).
Membranes expressing GPR119 were thawed and diluted to a final concentration of 20 μg/100 microL per well in Binding Buffer, and 100 microL of diluted membranes were added to each well of 96-well plate.
The plate was incubated for 60 minutes w/shaking at room temperature (approximately 25 degrees Celsius). […] Filters were then washed six times using washing buffer (50 mM Tris-HCl, pH 7.5 kept at 4 degrees Celsius). The filter plates were then air-dyed at room temperature overnight.
IC50 determinations were made from competition curves, analyzed with a proprietary curve fitting program (SIGHTS) and a 4-parameter logistic dose response equation. Ki values were calculated from IC50 values, using the Cheng-Prusoff equation.

Assay [3] concerns the target T1, human GPR119. In words: beta-lactamase reporter functional assay (hGPR119 HEK293-CRE beta-lactamase cells). It is filed as cell-based. Conditions: for EC50: read-out: Human B-lactamase Functional EC50; for Emax: read-out: Intrinsic Activity* (B-lactamase). The procedure: The assay for GPR119 agonists utilizes a cell-based (hGPR119 HEK293-CRE beta-lactamase) reporter construct where agonist activation of human GPR119 is coupled to beta-lactamase production via a cyclic AMP response element (CRE). GPR119 activity is then measured utilizing a FRET-enabled beta-lactamase substrate, CCF4-AM (Live Blazer FRET-B/G Loading kit, Invitrogen cat #K1027). […] After 4 hours the plating medium was removed and replaced with 40 microL of assay medium (Assay medium is plating medium without potassium clavulanate and HIFBS). Varying concentrations of each compound to be tested was then added in a volume of 10 microL (final DMSO≦0.5%) and the cells were incubated for 16 hours at 37 degrees Celsius in a humidified environment containing 5% carbon dioxide. Plates were removed from the incubator and allowed to equilibrate to room temperature for approximately 15 minutes. 10 microL of 6×CCF4/AM working dye solution (prepared according to instructions in the Live Blazer FRET-B/G Loading kit, Invitrogen cat #K1027) was added per well and incubated at room temperature for 2 hours in the dark. Fluorescence was measured on an EnVision fluorimetric plate reader, excitation 405 nm, emission 460 nm/535 nm. EC50 determinations were made from agonist-response curves analyzed with a curve fitting program using a 4-parameter logistic dose-response equation.

Setting [4] is: **curve was extrapolated to 100% to calculate an EC50.
The mark [5] stands for this setting: hGPR119 HEK293-CRE beta-lactamase cells, one value per run.
Where [6] appears, read: percent of maximal activity relative to standard GPR119 agonist (WO2005121121) at 10 microM, one value per run.

Consider ten molecules from patent US20110020460A1, “GPR 119 MODULATORS” (Pfizer Inc., priority 2009, published 2011).

Where “and” joins values, the source holds several entries; their conditions need not be identical. Equal values may be shown once. Read-outs that look alike come from different tables or passages of the source.

Usually EC50 stands for the midpoint of the concentration-response curve. Broadly, the Ki is the equilibrium dissociation constant of an inhibitor or competing ligand from its target. Regarding `Cc1ccccc1OCc1cnn(C2CCN(C(=O)OC(C)C)CC2)c1C#N` [Example 12, Isopropyl 4-{5-cyano-4-[(2-methylphenoxy)methyl]-1H-pyrazol-1-yl}piperidine-1-carboxylate], at human GPR119 [1], the EC50 was above 10000 nM and the Emax came out at 31%. Moreover, the Ki at human GPR119 [2] (read-out: Human Binding Ki) amounted to 1700 nM. Also, at human GPR119 [3] (setting [4]), the EC50 was 5200 nM and the Emax was 100%.
For the molecule `Cc1ncccc1OCc1cnn(C2CCN(C(=O)OC(C)C)CC2)c1C#N` [Example 5, Isopropyl 4-(5-cyano-4-{[(2-methylpyridin-3-yl)oxy]methyl}-1H-pyrazol-1-yl)piperidine-1-carboxylate], on human GPR119 [1], the EC50 is 442 nM and 650 nM; the “Intrinsic Activity* (cAMP)” value came out at 34%; the Emax worked out at 39%. Moreover, the Ki at human GPR119 [2] (read-out: Human Binding Ki) was 939 nM and 1710 nM. Moreover, at human GPR119 [3] (setting [5]), the EC50 is 250 nM and 227 nM and 395 nM. At human GPR119 [3] (setting [6]), the “Intrinsic Activity* (B-lactamase)” value is 88% and 104%; the Emax was found to be 100%.
With `CC(C)OC(=O)N1CCC(n2ncc(C(C)Oc3ccc(S(C)(=O)=O)cc3F)c2C#N)CC1` (stereo not shown) [Example 27, Isopropyl 4-(5-cyano-4-{1-[2-fluoro-4-(methylsulfonyl)phenoxy]ethyl}-1H-pyrazol-1-yl)piperidine-1-carboxylate], the EC50 is 394 nM on human GPR119 [1]; 1870 nM and 3400 nM on human GPR119 [3] (setting [5]). Moreover, the Emax at human GPR119 [1] worked out at 27%; at human GPR119 [3] (setting [6]) it was 102%. Further, the Ki at human GPR119 [2] (read-out: Human Binding Ki) is 1640 nM and 528 nM. Besides, the “Intrinsic Activity* (B-lactamase)” value at human GPR119 [3] (setting [6]) is on record as 100%.
For `CC(C)OC(=O)N1CCC(n2ncc(COc3ccc(-c4cncn4C)cc3F)c2C#N)CC1` [Example 34, Isopropyl 4-(5-cyano-4-{[2-fluoro-4-(1-methyl-1H-imidazol-5-yl)phenoxy]methyl}-1H-pyrazol-1-yl)piperidine-1-carboxylate], at human GPR119 [1], the EC50 was 55 nM and 70 nM; the “Intrinsic Activity* (cAMP)” value is listed as 78%; the Emax came to 94%. Moreover, the Ki at human GPR119 [2] (read-out: Human Binding Ki) is 87 nM. For the same molecule, the EC50 on human GPR119 [3] (setting [5]) turned out to be 270 nM. The Emax on human GPR119 [3] (setting [6]) came to 102%.
For the molecule `Cc1ncccc1NCc1cnn(C2CCN(C(=O)OC(C)C)CC2)c1C#N` [Example 6, Isopropyl 4-(5-cyano-4-{[(2-methylpyridin-3-yl)amino]methyl}-1H-pyrazol-1-yl)piperidine-1-carboxylate], the values for the EC50 at human GPR119 [1] and at human GPR119 [3] (setting [5]) were above 10000 nM and 6 nM, respectively. Further, the figures for the Emax at human GPR119 [1] and at human GPR119 [3] (setting [6]) were 17% and 31%, respectively. The Ki at human GPR119 [2] (read-out: Human Binding Ki) was above 6100 nM.
In the case of `Cc1nc(-n2cncn2)ccc1OCc1cnn(C2CCN(C(=O)OC(C)C)CC2)c1C#N` [Example 35, Isopropyl 4-[5-cyano-4-({[2-methyl-6-(1H-1,2,4-triazol-1-yl)pyridin-3-yl]oxy}methyl)-1H-pyrazol-1-yl]piperidine-1-carboxylate], on human GPR119 [1], the EC50 was 18 nM and 31 nM; the “Intrinsic Activity* (cAMP)” value came out at 66%; the Emax was 76%. Moreover, the Ki at human GPR119 [2] (read-out: Human Binding Ki) is 31 nM and 29 nM. Moreover, the EC50 on human GPR119 [3] (setting [5]) is 76 nM and 125 nM. At human GPR119 [3] (setting [6]), the “Intrinsic Activity* (B-lactamase)” value came out at 101% and the Emax amounted to 83%.
Regarding `Cc1nc(-n2cncn2)ccc1NCc1cnn(C2CCN(C(=O)OC(C)C)CC2)c1C#N` [Example 36, Isopropyl 4-[5-cyano-4-({[2-methyl-6-(1H-1,2,4-triazol-1-yl)pyridin-3-yl]amino}methyl)-1H-pyrazol-1-yl]piperidine-1-carboxylate], the EC50 on human GPR119 [1] was 281 nM and 256 nM; at human GPR119 [3] (setting [5]) it was 848 nM. In addition, the “Intrinsic Activity* (cAMP)” value at human GPR119 [1] is 51% and 76%. Also, the Ki on human GPR119 [2] (read-out: Human Binding Ki) was 521 nM and 1450 nM. For the same molecule, the Emax on human GPR119 [3] (setting [6]) worked out at 100%.
As to `CC(C)OC(=O)N1CCC(n2ncc(COc3ccc(S(=O)(=O)CCO)cc3F)c2C#N)CC1` [Example 1, Isopropyl 4-[5-cyano-4-({2-fluoro-4-[(2-hydroxyethyl)sulfonyl]-phenoxy}methyl)-1H-pyrazol-1-yl]piperidine-1-carboxylate], at human GPR119 [1], the half-maximal effective concentration (EC50) was 217 nM and 180 nM; the “Intrinsic Activity* (cAMP)” value turned out to be 37%; the Emax is 56%. The Ki at human GPR119 [2] (read-out: Human Binding Ki) was 47 nM and 45 nM. Further, the EC50 on human GPR119 [3] (setting [5]) was 68 nM and 122 nM. On human GPR119 [3] (setting [6]), the “Intrinsic Activity* (B-lactamase)” value amounted to 101% and the Emax worked out at 100%.
In the case of `CC(C)OC(=O)N1CCC(n2ncc(COc3ccc(-c4nnnn4C)cc3F)c2C#N)CC1` [Example 20, Isopropyl 4-(5-cyano-4-((2-fluoro-4-(1-methyl-1H-tetrazol-5-yl)phenoxy)methyl)-1H-pyrazol-1-yl)piperidine-1-carboxylate], the EC50 is 59 nM and 90 nM at human GPR119 [1]; 131 nM on human GPR119 [3] (setting [4]); 61 nM on human GPR119 [3] (setting [5]). In addition, the figures for the Emax on human GPR119 [1], on human GPR119 [3] (setting [4]) and at human GPR119 [3] (setting [6]) were 123%, 100% and 107%, respectively. In addition, the Ki on human GPR119 [2] (read-out: Human Binding Ki) is 41 nM and 144 nM.
Consider `COP(=O)(OC)c1ccc(OCc2cnn(C3CCN(C(=O)OC(C)C)CC3)c2C#N)c(F)c1` [Example 7, Isopropyl 4-(5-cyano-4-{[4-(dimethoxyphosphoryl)-2-fluorophenoxy]methyl}-1H-pyrazol-1-yl)piperidine-1-carboxylate], for which, at human GPR119 [1], the EC50 was 225 nM and 256 nM and 169 nM; the “Intrinsic Activity* (cAMP)” value is 74% and 85%; the Emax was determined as 80%. Also, at human GPR119 [2] (Human Binding Ki), the Ki is 293 nM and 283 nM. Further, on human GPR119 [3] (setting [5]), the EC50 is 622 nM. In addition, the Emax on human GPR119 [3] (setting [6]) turned out to be 98%.
